From the NIST ThermoML archive (doi:10.1021/je5009119)

Experiments:
[1] = mn = molality of the nth substance listed, in mol/kg; conditions: 101 kPa, Liquid; for viscosity: Capillary tube (Ostwald / Ubbelohde) method; for mass density: Pycnometric method
[2] = 101.33 kPa, Liquid; for viscosity: Capillary tube (Ostwald / Ubbelohde) method; for mass density: Pycnometric method

NC(N)=O [urea] + OCCO
[1]
Conditions	mass density, 298.15 K [kg/m3]	mass density, 303.15 K [kg/m3]	mass density, 308.15 K [kg/m3]	mass density, 313.15 K [kg/m3]	mass density, 318.15 K [kg/m3]	viscosity, 298.15 K [mPa·s]	viscosity, 303.15 K [mPa·s]	viscosity, 308.15 K [mPa·s]	viscosity, 313.15 K [mPa·s]	viscosity, 318.15 K [mPa·s]
m1 = 0.877	1118.4	1114.8	1111.1	1107.8	1103.9	17	14.9	12.1	10.1	8.13
m1 = 1.852	1127.9	1124.4	1120.7	1117.4	1113.6	18.5	16	13	10.8	8.68
m1 = 2.939	1137.2	1133.7	1130	1126.8	1122.9	20.4	17.5	14.1	11.6	9.31
m1 = 4.162	1146.3	1142.9	1139.1	1135.9	1132.1	22.1	18.8	15.1	12.4	9.86
m1 = 5.549	1155.3	1151.9	1148.1	1144.9	1141	24	20.2	16.1	13.2	10.4
m1 = 7.137	1164.4	1161.1	1157.4	1154.1	1150.3	25.7	21.5	17.1	13.9	11

OCCO [1,2-ethanediol] + NC(N)=O
[1], m2 = 0
Conditions	mass density [kg/m3]	viscosity [mPa·s]
298.15 K	–	16.2
303.15 K	1106.6	14.1
308.15 K	–	11.6
313.15 K	1099.3	9.75
318.15 K	–	7.91

OCCO [1,2-ethanediol]
[2]
Conditions	mass density [kg/m3]	viscosity [mPa·s]
298.15 K	–	16.2
303.15 K	1106.6	14.1
308.15 K	–	11.6
313.15 K	1099.3	9.75
318.15 K	–	7.91
